Source: patent US9694016B2 (Novartis AG, priority 2013, dated 2017)

Target: b-Raf (V600E) (Homo sapiens (Human), UniProt P15056, V600E)
Conditions: read-out: b-Raf IC-50; AlphaScreen, 60 min pre-incubation, reaction 3 hours at room temperature

Sequence of b-Raf (V600E) (P15056 whole entry V600E): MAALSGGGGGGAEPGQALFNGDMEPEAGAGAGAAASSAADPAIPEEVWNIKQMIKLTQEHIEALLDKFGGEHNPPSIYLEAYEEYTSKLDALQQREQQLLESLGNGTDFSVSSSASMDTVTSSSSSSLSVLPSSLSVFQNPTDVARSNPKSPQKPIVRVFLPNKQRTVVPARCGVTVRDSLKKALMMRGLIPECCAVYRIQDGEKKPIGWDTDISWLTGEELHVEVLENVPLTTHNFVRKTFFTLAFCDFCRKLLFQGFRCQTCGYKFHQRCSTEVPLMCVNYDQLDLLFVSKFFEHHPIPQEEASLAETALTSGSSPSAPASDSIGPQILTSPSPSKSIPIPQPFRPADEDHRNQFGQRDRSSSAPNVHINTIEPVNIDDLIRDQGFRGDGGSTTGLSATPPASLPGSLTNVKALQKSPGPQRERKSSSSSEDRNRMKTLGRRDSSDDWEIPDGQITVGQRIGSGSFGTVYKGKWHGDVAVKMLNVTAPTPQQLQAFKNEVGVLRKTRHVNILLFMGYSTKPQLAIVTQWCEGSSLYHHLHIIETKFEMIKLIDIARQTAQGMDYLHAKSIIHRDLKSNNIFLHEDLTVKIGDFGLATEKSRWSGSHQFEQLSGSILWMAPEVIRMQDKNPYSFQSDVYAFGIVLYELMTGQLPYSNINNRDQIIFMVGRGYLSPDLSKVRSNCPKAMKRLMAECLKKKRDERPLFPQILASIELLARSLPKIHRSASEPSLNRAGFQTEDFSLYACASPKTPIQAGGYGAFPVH

SMILES	IC50
Cc1ncc(NC(=O)c2cnnc(C(F)(F)F)c2)cc1-c1cc(NCCO)nc(N2CCOCC2)c1 [Example 1051, N-(2′-((2-hydroxyethyl)amino)-2-methyl-6′-morpholino-[3,4′-bipyridin]-5-yl)-6-(trifluoromethyl)pyridazine-4-carboxamide]	8.19 nM
Cc1ncc(NC(=O)c2cnnc(C3CC3)c2)cc1-c1cc(NCCO)nc(N2CCOCC2)c1 [Example 1052, 6-cyclopropyl-N-(2′-((2-hydroxyethyl)amino)-2-methyl-6′-morpholino-[3,4′-bipyridin]-5-yl)pyridazine-4-carboxamide]	8.24 nM
Cc1ccc(NC(=O)c2ccnc(C(F)F)c2)cc1-c1cc(NCCO)nc(N2CCOCC2)c1 [Example 1053, 2-(difluoromethyl)-N-(3-(2-((2-hydroxyethyl)amino)-6-morpholinopyridin-4-yl)-4-methylphenyl)isonicotinamide]	0.86 nM
Cc1ccc(NC(=O)c2ccnc(C(F)(F)F)c2)cc1-c1cc(NC2CCOC2)nc(N2CCOCC2)c1 (centres unmarked) [Example 1054, N-(4-methyl-3-(2-morpholino-6-((tetrahydrofuran-3-yl)amino)pyridin-4-yl)phenyl)-2-(trifluoromethyl)isonicotinamide]	1.18 nM
Cc1ccc(NC(=O)c2ccnc(C(F)(F)F)c2)cc1-c1cc(NCC2CCOC2)nc(N2CCOCC2)c1 (centres unmarked) [Example 1055, N-(4-methyl-3-(2-morpholino-6-(((tetrahydrofuran-3-yl)methyl)amino)pyridin-4-yl)phenyl)-2-(trifluoromethyl)isonicotinamide]	1.17 nM
Cc1ncc(NC(=O)c2ccnc(C(C)(C)F)c2)cc1-c1cc(NCCO)nc(N2CCOCC2)c1 [Example 1056, 2-(2-fluoropropan-2-yl)-N-(2′-((2-hydroxyethyl)amino)-2-methyl-6′-morpholino-[3,4′-bipyridin]-5-yl)isonicotinamide]	11.2 nM
Cc1ncc(NC(=O)c2ccnc(C3CC3)c2)cc1-c1cc(NCCO)nc(N2CCOCC2)c1 [Example 1057, 2-cyclopropyl-N-(2′-((2-hydroxyethyl)amino)-2-methyl-6′-morpholino-[3,4′-bipyridin]-5-yl)isonicotinamide]	4.12 nM
CCC(F)(F)c1cc(C(=O)Nc2cnc(C)c(-c3cc(NCCO)nc(N4CCOCC4)c3)c2)ccn1 [Example 1058, 2-(1,1-difluoropropyl)-N-(2′-((2-hydroxyethyl)amino)-2-methyl-6′-morpholino-[3,4′-bipyridin]-5-yl)isonicotinamide]	10.8 nM
Cc1ccc(NC(=O)c2ccnc(C(C)(C)C#N)c2)cc1-c1cc(N2CCOCC2)nc(N2CC(O)C2)c1 [Example 1059, 2-(2-cyanopropan-2-yl)-N-(3-(2-(3-hydroxyazetidin-1-yl)-6-morpholinopyridin-4-yl)-4-methylphenyl)isonicotinamide]	3.84 nM
Cc1ccc(NC(=O)c2ccnc(C(F)(F)F)c2)cc1-c1cc(N2CCOCC2)nc(N2CC(O)C2)c1 [Example 1060, N-(3-(2-(3-hydroxyazetidin-1-yl)-6-morpholinopyridin-4-yl)-4-methylphenyl)-2-(trifluoromethyl)isonicotinamide]	3.93 nM
CCn1cc(C(=O)Nc2ccc(C)c(-c3cc(N4CCOCC4)nc(N4CC(O)C4)c3)c2)cc(C(F)(F)F)c1=O [Example 1061, 1-ethyl-N-(3-(2-(3-hydroxyazetidin-1-yl)-6-morpholinopyridin-4-yl)-4-methylphenyl)-6-oxo-5-(trifluoromethyl)-1,6-dihydropyridine-3-carboxamide]	3.05 nM
Cc1ccc(NC(=O)c2cccc(C(F)(F)F)c2)cc1-c1cc(NCC(C)(C)O)nc(N2CCOCC2)c1 [Example 1062, N-(3-(2-((2-hydroxy-2-methylpropyl)amino)-6-morpholinopyridin-4-yl)-4-methylphenyl)-3-(trifluoromethyl)benzamide]	0.98 nM
Cc1ccc(NC(=O)c2cccc(C(F)(F)F)c2)cc1-c1cc(NCC(O)C(F)(F)F)nc(N2CCOCC2)c1 (centres unmarked) [Example 1063, N-(4-methyl-3-(2-morpholino-6-((3,3,3-trifluoro-2-hydroxypropyl)amino)pyridin-4-yl)phenyl)-3-(trifluoromethyl)benzamide]	1.48 nM
Cc1ccc(NC(=O)c2cccc(C(F)(F)F)c2)cc1-c1cc(N2CCOCC2)nc(N2C[C@H](O)CC2=O)c1 [Example 1064, (R)—N-(3-(2-(4-hydroxy-2-oxopyrrolidin-1-yl)-6-morpholinopyridin-4-yl)-4-methylphenyl)-3-(trifluoromethyl)benzamide]	0.65 nM
Cc1ccc(NC(=O)c2cccc(C(F)(F)F)c2)cc1-c1cc(N2CCOCC2)nc(N2CC[C@@H](O)C2=O)c1 [Example 1065, (R)—N-(3-(2-(3-hydroxy-2-oxopyrrolidin-1-yl)-6-morpholinopyridin-4-yl)-4-methylphenyl)-3-(trifluoromethyl)benzamide]	0.53 nM
Cc1ccc(NC(=O)c2cccc(C(F)(F)F)c2)cc1-c1cc(NC(=O)C(C)O)nc(N2CCOCC2)c1 (centres unmarked) [Example 1066, N-(3-(2-(2-hydroxypropanamido)-6-morpholinopyridin-4-yl)-4-methylphenyl)-3-(trifluoromethyl)benzamide]	0.58 nM

SMILES	IC50
Cc1ccc(NC(=O)c2ccnc(C(F)F)c2)cc1-c1cc(N2CCOCC2)nc(N2CC(O)C2)c1 [Example 1067, 2-(difluoromethyl)-N-(3-(2-(3-hydroxyazetidin-1-yl)-6-morpholinopyridin-4-yl)-4-methylphenyl)isonicotinamide]	0.6 nM
Cc1ccc(NC(=O)c2ccnc(C3CC3)c2)cc1-c1cc(N2CCOCC2)nc(N2CC(O)C2)c1 [Example 1068, 2-cyclopropyl-N-(3-(2-(3-hydroxyazetidin-1-yl)-6-morpholinopyridin-4-yl)-4-methylphenyl)isonicotinamide]	0.72 nM
Cc1ccc(NC(=O)c2ccnc(C(C)C)c2)cc1-c1cc(N2CCOCC2)nc(N2CC(O)C2)c1 [Example 1069, N-(3-(2-(3-hydroxyazetidin-1-yl)-6-morpholinopyridin-4-yl)-4-methylphenyl)-2-isopropylisonicotinamide]	2.64 nM
Cc1ccc(NC(=O)c2cnnc(C(F)(F)F)c2)cc1-c1cc(N2CCOCC2)nc(N2CC(O)C2)c1 [Example 1070, N-(3-(2-(3-hydroxyazetidin-1-yl)-6-morpholinopyridin-4-yl)-4-methylphenyl)-6-(trifluoromethyl)pyridazine-4-carboxamide]	2.41 nM
Cc1ccc(NC(=O)c2ccnc(C3(C#N)CC3)c2)cc1-c1cc(N2CCOCC2)nc(N2CC(O)C2)c1 [Example 1071, 2-(1-cyanocyclopropyl)-N-(3-(2-(3-hydroxyazetidin-1-yl)-6-morpholinopyridin-4-yl)-4-methylphenyl)isonicotinamide]	2.08 nM
Cc1ccc(NC(=O)c2ccnc(C(F)F)c2)cc1-c1cc(N2CCOCC2)nc(N2CC(C)(O)C2)c1 [Example 1072, 2-(difluoromethyl)-N-(3-(2-(3-hydroxy-3-methylazetidin-1-yl)-6-morpholinopyridin-4-yl)-4-methylphenyl)isonicotinamide]	1.74 nM
Cc1ccc(NC(=O)c2cnnc(C(F)(F)F)c2)cc1-c1cc(N2CCOCC2)nc(N2CC(C)(O)C2)c1 [Example 1073, N-(3-(2-(3-hydroxy-3-methylazetidin-1-yl)-6-morpholinopyridin-4-yl)-4-methylphenyl)-6-(trifluoromethyl)pyridazine-4-carboxamide]	2.99 nM
Cc1ccc(NC(=O)c2cccc(S(C)(=O)=O)c2)cc1-c1cc(N2CCOCC2)nc(N2CC(C)(O)C2)c1 [Example 1074, N-(3-(2-(3-hydroxy-3-methylazetidin-1-yl)-6-morpholinopyridin-4-yl)-4-methylphenyl)-3-(methylsulfonyl)benzamide]	1.86 nM
Cc1ccc(NC(=O)c2cnncc2C(F)F)cc1-c1cc(N2CCOCC2)nc(N2CC(O)C2)c1 [Example 1075, 5-(difluoromethyl)-N-(3-(2-(3-hydroxyazetidin-1-yl)-6-morpholinopyridin-4-yl)-4-methylphenyl)pyridazine-4-carboxamide]	682 nM
Cc1ccc(NC(=O)c2cnnc(C3CC3)c2)cc1-c1cc(N2CCOCC2)nc(N2CC(C)(O)C2)c1 [Example 1076, 6-cyclopropyl-N-(3-(2-(3-hydroxy-3-methylazetidin-1-yl)-6-morpholinopyridin-4-yl)-4-methylphenyl)pyridazine-4-carboxamide]	2.31 nM
Cc1ccc(NC(=O)c2cccc(C(F)F)c2)cc1-c1cc(N2CCOCC2)nc(N2CC(O)C2)c1 [Example 1077, 3-(difluoromethyl)-N-(3-(2-(3-hydroxyazetidin-1-yl)-6-morpholinopyridin-4-yl)-4-methylphenyl)benzamide]	0.85 nM
Cc1ccc(NC(=O)c2ccnc(C(C)(F)F)c2)cc1-c1cc(N2CCOCC2)nc(N2CC(O)C2)c1 [Example 1078, 2-(1,1-difluoroethyl)-N-(3-(2-(3-hydroxyazetidin-1-yl)-6-morpholinopyridin-4-yl)-4-methylphenyl)isonicotinamide]	0.67 nM
Cc1ncc(NC(=O)c2cccc(C(F)F)c2)cc1-c1cc(N2CCOCC2)nc(N2CC(O)C2)c1 [Example 1079, 3-(difluoromethyl)-N-(2′-(3-hydroxyazetidin-1-yl)-2-methyl-6′-morpholino-[3,4′-bipyridin]-5-yl)benzamide]	4.64 nM
Cc1ncc(NC(=O)c2ccnc(C(C)(F)F)c2)cc1-c1cc(N2CCOCC2)nc(N2CC(O)C2)c1 [Example 1080, 2-(1,1-difluoroethyl)-N-(2′-(3-hydroxyazetidin-1-yl)-2-methyl-6′-morpholino-[3,4′-bipyridin]-5-yl)isonicotinamide]	12.9 nM
Cc1ncc(NC(=O)c2ccnc(C(C)C)c2)cc1-c1cc(N2CCOCC2)nc(N2CC(O)C2)c1 [Example 1081, N-(2′-(3-hydroxyazetidin-1-yl)-2-methyl-6′-morpholino-[3,4′-bipyridin]-5-yl)-2-isopropylisonicotinamide]	6.43 nM
Cc1ncc(NC(=O)c2ccnc(C(C)(C)O)c2)cc1-c1cc(N2CCOCC2)nc(N2CC(O)C2)c1 [Example 1082, N-(2′-(3-hydroxyazetidin-1-yl)-2-methyl-6′-morpholino-[3,4′-bipyridin]-5-yl)-2-(2-hydroxypropan-2-yl)isonicotinamide]	58.2 nM
